# Results as given in PMC4503722, “Novel Phenotypic Outcomes Identified for a Public Collection of Approved Drugs from a Publicly Accessible Panel of Assays” (PLoS ONE, 2015).
# Like-named read-outs stand apart in the source and are kept apart here.
# Experiments:
# [1] = test system: HCT116 cells treated with a GSK3β inhibitor; assay: cells; format: cell-based
# [2] = test system: nuclear β-catenin in C2C12 cells; assay: cells; format: cell-based
# hp70S6K1 (RPS6KB1) = target: T1, hp70S6K1 (RPS6KB1) (Homo sapiens, UniProt P23443); assay: Cerep LANCE kinase assay hp70S6K1 (S1 assay 31); format: biochemical
# T1 construct: purchased Cerep (LANCE kinase assay platform, contract assay)
# T1 sequence (P23443 whole entry): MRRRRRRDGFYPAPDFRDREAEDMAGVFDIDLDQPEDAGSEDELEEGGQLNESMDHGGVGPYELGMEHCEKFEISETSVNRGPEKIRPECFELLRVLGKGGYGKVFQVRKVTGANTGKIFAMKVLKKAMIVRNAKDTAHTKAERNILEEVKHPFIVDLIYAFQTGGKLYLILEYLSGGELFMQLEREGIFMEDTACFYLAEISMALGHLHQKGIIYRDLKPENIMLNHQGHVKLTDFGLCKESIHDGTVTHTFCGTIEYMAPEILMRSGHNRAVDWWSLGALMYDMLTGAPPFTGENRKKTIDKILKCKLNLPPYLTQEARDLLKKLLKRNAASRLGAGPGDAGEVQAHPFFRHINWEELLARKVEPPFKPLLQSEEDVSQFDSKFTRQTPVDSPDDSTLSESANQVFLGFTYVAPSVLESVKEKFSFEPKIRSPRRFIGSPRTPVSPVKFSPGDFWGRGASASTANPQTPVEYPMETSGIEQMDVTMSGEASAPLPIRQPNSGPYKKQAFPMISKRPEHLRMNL
# hGSK3b = target: T2, hGSK3b (Homo sapiens, UniProt P49841); assay: Cerep LANCE kinase assay hGSK3b (S1 assay 34); format: biochemical
# T2 construct: purchased Cerep (LANCE kinase assay platform, contract assay)
# T2 sequence (P49841 whole entry): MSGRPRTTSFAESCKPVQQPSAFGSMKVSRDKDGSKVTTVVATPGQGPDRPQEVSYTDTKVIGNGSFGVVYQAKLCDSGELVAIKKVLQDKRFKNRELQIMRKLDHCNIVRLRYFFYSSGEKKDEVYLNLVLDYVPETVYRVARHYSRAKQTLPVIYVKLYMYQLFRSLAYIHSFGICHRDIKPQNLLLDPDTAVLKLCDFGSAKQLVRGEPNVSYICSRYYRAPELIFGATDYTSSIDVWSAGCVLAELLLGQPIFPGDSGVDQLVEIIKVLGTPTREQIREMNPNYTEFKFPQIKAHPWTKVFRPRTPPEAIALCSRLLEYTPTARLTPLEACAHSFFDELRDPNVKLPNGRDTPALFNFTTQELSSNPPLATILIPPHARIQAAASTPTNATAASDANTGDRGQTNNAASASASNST
# hJAK2 = target: T3, hJAK2 (Homo sapiens, UniProt O60674); assay: Cerep LANCE kinase assay hJAK2 (S1 assay 33); format: biochemical
# T3 construct: purchased Cerep (LANCE kinase assay platform, contract assay)
# T3 sequence (O60674 whole entry): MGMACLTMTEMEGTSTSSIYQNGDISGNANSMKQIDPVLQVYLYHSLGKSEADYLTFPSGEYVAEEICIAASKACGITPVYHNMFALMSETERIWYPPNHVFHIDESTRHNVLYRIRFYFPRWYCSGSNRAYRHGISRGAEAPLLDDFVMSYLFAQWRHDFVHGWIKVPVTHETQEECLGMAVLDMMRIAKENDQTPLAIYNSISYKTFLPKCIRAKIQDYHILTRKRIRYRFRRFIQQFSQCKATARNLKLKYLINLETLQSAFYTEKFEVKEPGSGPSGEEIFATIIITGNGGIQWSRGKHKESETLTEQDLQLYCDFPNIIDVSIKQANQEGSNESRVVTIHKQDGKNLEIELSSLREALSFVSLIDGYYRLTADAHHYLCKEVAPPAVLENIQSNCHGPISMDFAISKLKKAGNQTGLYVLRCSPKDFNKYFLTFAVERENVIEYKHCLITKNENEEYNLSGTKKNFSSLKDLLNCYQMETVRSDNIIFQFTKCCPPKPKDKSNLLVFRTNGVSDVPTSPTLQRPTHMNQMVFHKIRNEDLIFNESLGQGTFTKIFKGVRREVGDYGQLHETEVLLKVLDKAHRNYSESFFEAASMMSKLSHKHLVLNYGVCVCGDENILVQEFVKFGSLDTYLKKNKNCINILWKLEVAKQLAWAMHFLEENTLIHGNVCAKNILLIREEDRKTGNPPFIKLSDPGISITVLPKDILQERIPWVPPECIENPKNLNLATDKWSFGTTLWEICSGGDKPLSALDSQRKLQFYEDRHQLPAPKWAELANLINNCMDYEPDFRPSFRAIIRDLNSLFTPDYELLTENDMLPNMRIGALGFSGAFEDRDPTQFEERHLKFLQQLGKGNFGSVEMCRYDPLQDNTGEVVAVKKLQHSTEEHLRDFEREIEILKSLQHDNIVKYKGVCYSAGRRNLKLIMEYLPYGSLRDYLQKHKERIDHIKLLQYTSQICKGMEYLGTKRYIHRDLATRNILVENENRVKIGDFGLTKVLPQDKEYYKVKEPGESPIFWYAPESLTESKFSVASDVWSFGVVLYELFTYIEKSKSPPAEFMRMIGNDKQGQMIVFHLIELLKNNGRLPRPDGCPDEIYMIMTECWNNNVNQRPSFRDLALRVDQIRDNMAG
# HeLa cells = assay: cells; format: cell-based; settings: for EC50: HeLa, read-out: CellCycle G2/M;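 for Hela CellCycMod PI 4N summarized IC50: value tracks stimulation of 4N DNA content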
# SW480 = assay: cells; format: cell-based
# INS-1E cells = assay: cells; format: cell-based, rat; settings: INS-1E
# NCI-H716 cells = assay: cells; format: cell-based, Human
# hFLT3 = target: T4, hFLT3 (Homo sapiens, UniProt P36888); assay: Cerep LANCE kinase assay hFLT3 (S1 assay 35); format: biochemical
# T4 construct: purchased Cerep (LANCE kinase assay platform, contract assay)
# T4 sequence (P36888 27-993): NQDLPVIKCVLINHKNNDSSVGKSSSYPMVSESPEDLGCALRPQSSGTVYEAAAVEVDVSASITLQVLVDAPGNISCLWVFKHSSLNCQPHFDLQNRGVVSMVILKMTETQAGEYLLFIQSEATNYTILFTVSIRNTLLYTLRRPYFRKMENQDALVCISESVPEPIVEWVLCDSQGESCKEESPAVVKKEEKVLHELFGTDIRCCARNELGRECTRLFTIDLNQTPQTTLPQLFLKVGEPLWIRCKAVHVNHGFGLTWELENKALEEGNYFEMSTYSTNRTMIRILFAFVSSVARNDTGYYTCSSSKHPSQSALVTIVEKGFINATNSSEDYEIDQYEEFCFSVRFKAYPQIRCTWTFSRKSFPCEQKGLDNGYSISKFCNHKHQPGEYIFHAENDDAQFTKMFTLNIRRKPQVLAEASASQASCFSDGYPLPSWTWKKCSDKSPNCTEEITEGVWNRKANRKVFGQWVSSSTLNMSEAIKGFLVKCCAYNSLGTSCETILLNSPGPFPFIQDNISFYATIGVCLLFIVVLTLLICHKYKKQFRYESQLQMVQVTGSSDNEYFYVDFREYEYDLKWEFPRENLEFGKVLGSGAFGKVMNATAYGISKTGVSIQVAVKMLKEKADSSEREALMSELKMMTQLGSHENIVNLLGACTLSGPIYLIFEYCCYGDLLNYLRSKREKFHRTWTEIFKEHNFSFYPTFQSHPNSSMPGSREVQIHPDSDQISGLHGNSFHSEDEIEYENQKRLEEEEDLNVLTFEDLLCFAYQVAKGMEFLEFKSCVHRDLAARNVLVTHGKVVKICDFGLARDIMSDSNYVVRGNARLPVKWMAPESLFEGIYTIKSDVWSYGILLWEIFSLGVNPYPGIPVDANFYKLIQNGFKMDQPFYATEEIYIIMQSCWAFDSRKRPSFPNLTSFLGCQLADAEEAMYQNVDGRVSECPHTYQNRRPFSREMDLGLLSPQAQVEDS
# hKDR = target: T5, hKDR (Homo sapiens, UniProt P35968); assay: Cerep LANCE kinase assay hKDR (S1 assay 32); format: biochemical
# T5 construct: purchased Cerep (LANCE kinase assay platform, contract assay)
# T5 sequence (P35968 20-1356): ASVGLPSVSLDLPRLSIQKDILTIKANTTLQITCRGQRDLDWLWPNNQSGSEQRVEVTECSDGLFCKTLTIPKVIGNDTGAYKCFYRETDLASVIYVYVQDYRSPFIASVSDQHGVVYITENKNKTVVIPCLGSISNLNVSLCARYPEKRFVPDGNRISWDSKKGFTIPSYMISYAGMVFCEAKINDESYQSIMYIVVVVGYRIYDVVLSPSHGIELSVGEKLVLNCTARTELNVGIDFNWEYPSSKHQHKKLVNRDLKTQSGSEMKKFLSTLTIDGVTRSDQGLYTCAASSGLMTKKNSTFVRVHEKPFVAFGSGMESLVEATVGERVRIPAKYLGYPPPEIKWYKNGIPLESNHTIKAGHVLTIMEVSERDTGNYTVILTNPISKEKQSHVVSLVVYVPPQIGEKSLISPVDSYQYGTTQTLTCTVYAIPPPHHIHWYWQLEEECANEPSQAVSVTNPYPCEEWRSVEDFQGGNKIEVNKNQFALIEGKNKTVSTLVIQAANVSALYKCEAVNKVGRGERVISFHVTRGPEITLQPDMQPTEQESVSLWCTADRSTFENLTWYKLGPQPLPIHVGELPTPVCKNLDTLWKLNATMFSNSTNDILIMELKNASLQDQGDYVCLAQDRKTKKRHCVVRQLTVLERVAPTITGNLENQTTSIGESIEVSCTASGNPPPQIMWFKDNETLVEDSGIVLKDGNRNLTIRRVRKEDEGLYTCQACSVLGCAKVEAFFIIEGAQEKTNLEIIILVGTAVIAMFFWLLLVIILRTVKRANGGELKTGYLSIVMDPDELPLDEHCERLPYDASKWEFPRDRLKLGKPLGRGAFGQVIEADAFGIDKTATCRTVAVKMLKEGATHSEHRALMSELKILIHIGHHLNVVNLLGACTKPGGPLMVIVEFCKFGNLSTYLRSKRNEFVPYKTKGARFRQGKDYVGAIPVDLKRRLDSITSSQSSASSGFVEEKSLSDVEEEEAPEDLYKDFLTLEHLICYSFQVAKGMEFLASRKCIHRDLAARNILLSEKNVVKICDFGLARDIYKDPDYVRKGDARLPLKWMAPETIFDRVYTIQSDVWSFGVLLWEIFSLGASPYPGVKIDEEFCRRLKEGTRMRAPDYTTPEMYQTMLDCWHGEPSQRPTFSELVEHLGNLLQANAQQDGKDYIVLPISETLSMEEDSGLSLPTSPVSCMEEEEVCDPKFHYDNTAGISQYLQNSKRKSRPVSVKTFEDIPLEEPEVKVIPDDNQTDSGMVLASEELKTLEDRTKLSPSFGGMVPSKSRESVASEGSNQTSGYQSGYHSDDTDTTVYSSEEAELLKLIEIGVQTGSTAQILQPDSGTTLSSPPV
# [3] = test system: endothelial tube formation in co-cultures of ECFCs and ADSCs treated with VEGF; assay: cells; format: cell-based, human
# HCT116 = assay: cells; format: cell-based
# DLD-1 = assay: cells; format: cell-based
# RKO = assay: cells; format: cell-based
# SNU-C1 = assay: cells; format: cell-based
# Colo320 = assay: cells; format: cell-based
# [4] = test system: ECFC/ADSC co-culture cell nuclei number
# HT-29 = assay: cells; format: cell-based
# [5] = Homo sapiens, HCT-116, read-out: GSK3b inh pretreated_Viability ATP HCT116
# [6] = Homo sapiens, SNU-C1, read-out: Basal_Viability ATP SNU-C1
# [7] = Homo sapiens, SW480, read-out: Basal_Viability ATP SW480
# [8] = Rattus norvegicus, read-out: Insulin Secretion
# [9] = Homo sapiens, NCI-H716, read-out: GLP 1 Secretion
# [10] = Homo sapiens, HT-29, read-out: Basal_Viability ATP HT-29
# [11] = Homo sapiens, DLD-1, read-out: Basal_Viability ATP DLD-1
# [12] = Homo sapiens, HCT-116, read-out: Basal_Viability ATP HCT116
structure (smiles),measurement,setting,value
C[C@@H]1C[C@@H]([C@H](O)CC2CC(=O)NC(=O)C2)C(=O)[C@@H](C)C1,IC50,"[1]; GSK3b inhibitor pretreated, read-out: GSK3b inh pretreated_Viability ATP HCT116",1.02 µM
same,EC50,"[2]; IC50 / EC50, C2C12 beta-catenin translocation, read-out: Wnt Pathway",> 10 µM
same,IC50,hp70S6K1 (RPS6KB1); read-out: p70S6K1,> 20 µM
same,IC50,hGSK3b; read-out: GSK3b,> 20 µM
same,IC50,hJAK2; read-out: JAK2,> 20 µM
same,EC50,HeLa cells; IC50 / EC50,> 10 µM
same,IC50,"SW480; basal, read-out: Basal_Viability ATP SW480",3.04 µM
same,EC50,"INS-1E cells; IC50 / EC50, read-out: Insulin Secretion",> 10 µM
same,EC50,"NCI-H716 cells; IC50 / EC50, NCI-H716, read-out: GLP 1 Secretion",> 10 µM
same,IC50,hFLT3; read-out: FLT3,> 20 µM
same,IC50,hKDR; read-out: KDR,> 20 µM
same,IC50,"[3]; IC50 / EC50, endothelial tube area, ADSC/ECFC co-culture, read-out: Anti-Angiogenesis",1.15 µM
same,IC50,"HCT116; basal, read-out: Basal_Viability ATP HCT116",2.02 µM
same,IC50,"DLD-1; basal, read-out: Basal_Viability ATP DLD-1",3.57 µM
Nc1nc(=S)c2[nH]cnc2[nH]1 [NCGC00263442-01],IC50,[1]; read-out: GSK3b inh pretreated_Viability ATP HCT116 summarized IC50,0.163 µM
same,IC50,RKO; read-out: Basal_Viability ATP RKO summarized IC50,0.343 µM
same,IC50,SNU-C1; read-out: Basal_Viability ATP SNU-C1 summarized IC50,4.4 µM
same,IC50,hp70S6K1 (RPS6KB1); read-out: hp70S6K1 LANCE summarized IC50,> 20 µM
same,IC50,hGSK3b; read-out: hGSK3b LANCE summarized IC50,> 20 µM
same,IC50,hJAK2; read-out: hJAK2 LANCE summarized IC50,> 20 µM
same,IC50,HeLa cells; read-out: Hela CellCycMod PI 2N summarized IC50,> 10 µM
same,IC50,HeLa cells; read-out: Hela CellCycMod PI 4N summarized IC50,> 10 µM
same,IC50,HeLa cells; read-out: Hela CellCycMod PI Cell Number summarized IC50,> 10 µM
same,IC50,HeLa cells; read-out: Hela CellCycMod PI MI summarized IC50,> 10 µM
same,IC50,HeLa cells; read-out: Hela CellCycMod PI S Phase summarized IC50,> 10 µM
same,IC50,Colo320; read-out: Basal_Viability ATP Colo 320 summarized IC50,0.373 µM
same,IC50,SW480; read-out: Basal_Viability ATP SW480 summarized IC50,0.402 µM
same,IC50,hFLT3; read-out: hFLT3 LANCE summarized IC50,> 20 µM
same,IC50,hKDR; read-out: hKDR LANCE summarized IC50,> 20 µM
same,IC50,[4]; read-out: VEGF_ADSC\ECFC Angio Hoechst NucArea summarized IC50,> 10 µM
same,IC50,[3]; read-out: VEGF_ADSC\ECFC Angio CD31 TubeArea summarized IC50,0.622 µM
same,IC50,HCT116; read-out: Basal_Viability ATP HCT116 summarized IC50,0.139 µM
same,IC50,HT-29; read-out: Basal_Viability ATP HT-29 summarized IC50,0.0493 µM
same,IC50,DLD-1; read-out: Basal_Viability ATP DLD-1 summarized IC50,0.108 µM
O=C(O)c1ccc(-n2nc(-c3ccccc3O)nc2-c2ccccc2O)cc1 [NCGC00263572-01],GSK3b inh pretreated_Viability ATP HCT116 IC50/EC50,"[1]; assay number 26, GSK3b inhibitor pretreated",0.2423 µM
same,Basal_Viability ATP RKO IC50/EC50,RKO; assay number 29,0.1001 µM
same,Basal_Viability ATP SNU-C1 IC50/EC50,SNU-C1; assay number 30,0.2328 µM
same,hp70S6K1 LANCE IC50/EC50,hp70S6K1 (RPS6KB1); assay number 31,> 20 µM
same,hGSK3b LANCE IC50/EC50,hGSK3b; assay number 34,> 20 µM
same,hJAK2 LANCE IC50/EC50,hJAK2; assay number 33,18.21 µM
same,Hela CellCycMod PI 2N IC50/EC50,"HeLa cells; assay number 14, 2N",> 10 µM
same,Hela CellCycMod PI 4N IC50/EC50,"HeLa cells; assay number 16, 4N",> 10 µM
same,Hela CellCycMod PI MI IC50/EC50,"HeLa cells; assay number 17, MI",> 10 µM
same,Hela CellCycMod PI Cell Number IC50/EC50,"HeLa cells; assay number 18, cell number",5.678 µM
same,Basal_Viability ATP Colo 320 IC50/EC50,Colo320; assay number 27,0.4085 µM
same,Basal_Viability ATP SW480 IC50/EC50,SW480; assay number 24,0.0776 µM
same,hFLT3 LANCE IC50/EC50,hFLT3; assay number 35,> 20 µM
same,hKDR LANCE IC50/EC50,hKDR; assay number 32,> 20 µM
same,VEGF_ADSC\ECFC Angio Hoechst NucArea IC50/EC50,[4],> 10 µM
same,VEGF_ADSC\ECFC Angio CD31 TubeArea IC50/EC50,[3],2.0862 µM
same,Basal_Viability ATP HCT116 IC50/EC50,"HCT116; assay number 25, basal",0.4376 µM
same,Basal_Viability ATP HT-29 IC50/EC50,HT-29; assay number 28,0.5159 µM
same,Basal_Viability ATP DLD-1 IC50/EC50,DLD-1; assay number 23,0.6507 µM
COc1ccc(-c2nc3ccc(C4=NNC(=O)CC4C)cc3[nH]2)cc1 (centres unmarked) [Pimobendan],IC50,[1]; [5],> 20 µM
same,IC50,hp70S6K1 (RPS6KB1); read-out: p70S6K1,> 20 µM
same,IC50,hGSK3b; read-out: GSK3b,> 20 µM
same,IC50,hJAK2; read-out: JAK2,> 20 µM
same,EC50,"HeLa cells; Homo sapiens, IC50 / EC50",> 10 µM
same,IC50,"SW480; Homo sapiens, SW480, basal, read-out: Basal_Viability ATP SW480",> 20 µM
same,EC50,"INS-1E cells; Rattus norvegicus, IC50 / EC50, read-out: Insulin Secretion",> 10 µM
same,EC50,"NCI-H716 cells; Homo sapiens, IC50 / EC50, NCI-H716, read-out: GLP 1 Secretion",> 10 µM
same,IC50,hFLT3; read-out: FLT3,5.13 µM
same,IC50,hKDR; read-out: KDR,> 20 µM
same,IC50,"[3]; Homo sapiens, IC50 / EC50, endothelial tube area, ADSC/ECFC co-culture, read-out: Anti-Angiogenesis",2.89 µM
same,IC50,"HCT116; Homo sapiens, HCT-116, basal, read-out: Basal_Viability ATP HCT116",16 µM
same,IC50,"DLD-1; Homo sapiens, DLD-1, basal, read-out: Basal_Viability ATP DLD-1",> 20 µM
O=c1[nH]c(=O)n([C@H]2C[C@H](O)[C@@H](CO)O2)cc1C(F)(F)F [Trifluridine],IC50,[1]; [5],1.25 µM
same,IC50,SNU-C1; [6],> 20 µM
same,IC50,"hp70S6K1 (RPS6KB1); kinase assay, read-out: p70S6K1",> 20 µM
same,IC50,"hGSK3b; kinase assay, read-out: GSK3b",> 20 µM
same,IC50,"hJAK2; kinase assay, read-out: JAK2",> 20 µM
same,EC50,HeLa cells; Homo sapiens,> 10 µM
same,IC50,"Colo320; Homo sapiens, COLO 320, read-out: Basal_Viability ATP Colo 320",> 20 µM
same,IC50,SW480; [7],> 20 µM
same,EC50,INS-1E cells; [8],> 10 µM
same,EC50,NCI-H716 cells; [9],> 10 µM
same,IC50,"hFLT3; kinase assay, read-out: FLT3",> 20 µM
same,IC50,"hKDR; kinase assay, read-out: KDR",> 20 µM
same,IC50,HT-29; [10],> 20 µM
same,IC50,DLD-1; [11],> 20 µM
"CC(C)C[C@H](NC(=O)[C@H](Cc1ccccc1)NC(=O)c1cnccn1)B(O)O [bortezomib, reference compound]",IC50,"[1]; Homo sapiens, HCT-116, 72 h, read-out: HCT-116 (GSK3β) viab. IC50",0.002 µM
same,IC50,[1]; [5],0.00241 µM
same,IC50,"RKO; Homo sapiens, RKO, 72 h, read-out: RKO viab. IC50",0.008 µM
same,IC50,"RKO; Homo sapiens, RKO, read-out: Basal_Viability ATP RKO",0.0081 µM
same,IC50,"SNU-C1; Homo sapiens, SNU-C1, 72 h, read-out: SNU-C1 viab. IC50",0.003 µM
same,IC50,SNU-C1; [6],0.0032 µM
same,IC50,hp70S6K1 (RPS6KB1); read-out: p70S6K1,> 20 µM
same,IC50,hGSK3b; read-out: GSK3b,> 20 µM
same,IC50,hJAK2; read-out: JAK2,> 20 µM
same,EC50,HeLa cells; Homo sapiens,> 10 µM
same,IC50,"Colo320; Homo sapiens, COLO 320, 72 h, read-out: Colo320 viab. IC50",2.8 µM
same,IC50,"SW480; Homo sapiens, SW480, 72 h, read-out: SW480 viab. IC50",0.005 µM
same,IC50,SW480; [7],0.00513 µM
same,EC50,"INS-1E cells; Rattus norvegicus, read-out: Ins. sec. EC50",> 10 µM
same,EC50,"NCI-H716 cells; Homo sapiens, NCI-H716, read-out: GLP1 sec. EC50",> 10 µM
same,IC50,hFLT3; read-out: FLT3,> 20 µM
same,IC50,hKDR; read-out: KDR,> 20 µM
same,IC50,"HCT116; Homo sapiens, HCT-116, 72 h, read-out: HCT-116 viab. IC50",0.004 µM
same,IC50,HCT116; [12],0.00365 µM
same,IC50,"HT-29; Homo sapiens, HT-29, 72 h, read-out: HT-29 viab. IC50",0.003 µM
same,IC50,HT-29; [10],0.00315 µM
same,IC50,"DLD-1; Homo sapiens, DLD-1, 72 h, read-out: DLD-1 viab. IC50",0.006 µM
same,IC50,DLD-1; [11],0.00636 µM
CCC1=C[C@@H]2CN(C1)Cc1c([nH]c3ccccc13)[C@@](C(=O)OC)(c1cc3c(cc1OC)N(C)[C@H]1[C@@](O)(C(=O)OC)[C@H](OC(C)=O)[C@]4(CC)C=CCN5CC[C@]31[C@@H]54)C2 [vinorelbine],IC50,[1]; [5],0.0667 µM
same,EC50,"[2]; Mus musculus, C2C12, read-out: Wnt Pathway",0.0089 µM
same,IC50,hp70S6K1 (RPS6KB1); read-out: p70S6K1,> 20 µM
same,IC50,hGSK3b; read-out: GSK3b,> 20 µM
same,IC50,hJAK2; read-out: JAK2,> 20 µM
same,IC50,SW480; [7],0.342 µM
same,EC50,INS-1E cells; [8],> 10 µM
same,EC50,NCI-H716 cells; [9],> 10 µM
same,IC50,hFLT3; read-out: FLT3,> 20 µM
same,IC50,hKDR; read-out: KDR,> 20 µM
same,IC50,"[3]; Homo sapiens, read-out: Anti-Angiogenesis",0.0055 µM
same,IC50,HCT116; [12],0.0964 µM
same,IC50,DLD-1; [11],0.214 µM
